A value given as a limit tells only on which side of the number the result lay.

In general, IC50 refers to the concentration that gives 50% inhibition.

The target in this assay is T1, human TLR9 (Homo sapiens, UniProt Q9NR96).
T1 construct: host or cells: HEK-Blue cells
T1 sequence (Q9NR96 26-1032): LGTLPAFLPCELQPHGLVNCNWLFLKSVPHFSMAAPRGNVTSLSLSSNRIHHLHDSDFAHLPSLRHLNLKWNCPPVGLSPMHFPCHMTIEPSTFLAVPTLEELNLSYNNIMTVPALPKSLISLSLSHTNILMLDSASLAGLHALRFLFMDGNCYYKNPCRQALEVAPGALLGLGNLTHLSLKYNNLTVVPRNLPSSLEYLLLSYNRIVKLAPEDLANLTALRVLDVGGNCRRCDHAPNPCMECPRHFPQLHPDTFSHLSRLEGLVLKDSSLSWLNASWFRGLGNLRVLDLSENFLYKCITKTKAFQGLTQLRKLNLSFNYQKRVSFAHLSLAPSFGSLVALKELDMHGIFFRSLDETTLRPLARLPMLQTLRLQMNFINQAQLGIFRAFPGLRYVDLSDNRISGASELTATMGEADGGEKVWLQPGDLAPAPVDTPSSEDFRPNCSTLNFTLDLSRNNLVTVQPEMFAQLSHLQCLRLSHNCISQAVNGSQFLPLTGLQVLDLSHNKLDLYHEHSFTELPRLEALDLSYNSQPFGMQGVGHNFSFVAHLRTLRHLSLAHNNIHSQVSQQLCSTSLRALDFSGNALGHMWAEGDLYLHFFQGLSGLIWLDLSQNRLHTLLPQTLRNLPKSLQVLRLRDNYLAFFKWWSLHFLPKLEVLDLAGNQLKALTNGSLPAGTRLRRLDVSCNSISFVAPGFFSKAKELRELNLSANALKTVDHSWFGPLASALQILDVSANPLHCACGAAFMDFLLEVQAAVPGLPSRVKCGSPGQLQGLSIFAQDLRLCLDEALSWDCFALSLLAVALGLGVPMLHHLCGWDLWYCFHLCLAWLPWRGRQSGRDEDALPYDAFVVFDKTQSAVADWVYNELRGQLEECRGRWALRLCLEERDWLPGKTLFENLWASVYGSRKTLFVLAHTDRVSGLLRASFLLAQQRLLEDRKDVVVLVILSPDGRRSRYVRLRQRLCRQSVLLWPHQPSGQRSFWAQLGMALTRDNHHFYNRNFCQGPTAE
Kind of assay: TLR9 inhibition reporter assay (HEK-Blue SEAP). Type of assay: cell-based. The conditions noted are these: HEK-Blue cells overexpressing human TLR9, ODN2006 5 nM, 22 hour incubation. The procedure:
TLR7/8/9 Inhibition Reporter Assays
HEK-Blue™-cells (Invivogen) overexpressing human TLR7, TLR8 or TLR9 receptors were used for screening inhibitors of these receptors using an inducible SEAP (secreted embryonic alkaline phosphatase) reporter gene under the control of the IFN-β minimal promoter fused to five NF-κB and AP-1-binding sites. Briefly, cells are seeded into Greiner 384 well plates (15000 cells per well for TLR7, 20,000 for TLR8 and 25,000 for TLR9) and then treated with test compounds in DMSO to yield a final dose response concentration range of 0.05 nM-50 μM. After a 30 minute compound pre-treatment at room temperature, the cells are then stimulated with a TLR7 ligand (gardiquimod at a final concentration of 7.5 μM), TLR8 ligand (R848 at a final concentration of 15.9 μM) or TLR9 ligand (ODN2006 at a final concentration of 5 nM) to activate NF-κB and AP-1 which induce the production of SEAP. After a 22 hour incubation at 37° C., 5% CO2, SEAP levels are determined with the addition of HEK-Blue™ Detection reagent (Invivogen), a cell culture medium that allows for detection of SEAP, according to manufacturer's specifications. The percent inhibition is determined as the % reduction in the HEK-Blue signal present in wells treated with agonist plus DMSO alone compared to wells treated with a known inhibitor.
In general terms: A reporter such as luciferase makes a cellular process visible.
Molecule `COc1cc(-c2cc3[nH]c(=O)n([C@H]4CCCN(CC(C)C)C4)c3cc2C(C)C)cn2ncnc12` [Example 129, (S)-1-(1-isobutylpiperidin-3-yl)-6-isopropyl-5-(8-methoxy-[1,2,4]triazolo[1,5-a]pyridin-6-yl)-1,3-dihydro-2H-benzo[d]imidazol-2-one] displayed an IC50 of 3.69 µM. Molecule `COCCN1CCC[C@@H](n2c(=O)[nH]c3cc(-c4cc(OC)c5ncnn5c4)c(C(F)(F)F)cc32)C1` [Example 118, (R)-5-(8-methoxy-[1,2,4]triazolo[1,5-a]pyridin-6-yl)-1-(1-(2-methoxyethyl)piperidin-3-yl)-6-(trifluoromethyl)-1,3-dihydro-2H-benzo[d]imidazol-2-one] registered an IC50 of 18.1 µM.

`CCN1CCC(n2c(=O)[nH]c3cc(-c4cc(C)c5ncnn5c4)cc(C)c32)CC1` [Example 108, 1-(1-ethylpiperidin-4-yl)-7-methyl-5-(8-methyl-[1,2,4]triazolo[1,5-a]pyridin-6-yl)-1,3-dihydro-2H-benzo[d]imidazol-2-one]: the half-inhibitory concentration (IC50) is 1.16 µM.

For the molecule `CCc1cc2c(cc1-c1cc(OC)c3ncnn3c1)[nH]c(=O)n2[C@H]1CC[C@@H](NC2CCOCC2)CC1` [Example 166, 6-ethyl-5-(8-methoxy-[1,2,4]triazolo[1,5-a]pyridin-6-yl)-1-((1s,4s)-4-((tetrahydro-2H-pyran-4-yl)amino)cyclohexyl)-1,3-dihydro-2H-benzo[d]imidazol-2-one], the IC50 came out at 14.9 µM. The result for `COc1cc(-c2cc3[nH]c(=O)n([C@H]4CCCN(CC5CCOCC5)C4)c3cc2C(C)C)cn2ncnc12` [Example 125, (S)-6-isopropyl-5-(8-methoxy-[1,2,4]triazolo[1,5-a]pyridin-6-yl)-1-(1-((tetrahydro-2H-pyran-4-yl)methyl)piperidin-3-yl)-1,3-dihydro-2H-benzo[d]imidazol-2-one] reads 7.72 µM.

The molecule `CCN1CCC(n2c(=O)[nH]c3cc(-c4cc(OC)c5ncnn5c4)c(C)cc32)CC1` [Example 9, 1-(1-ethylpiperidin-4-yl)-5-(8-methoxy-[1,2,4]triazolo[1,5-a]pyridin-6-yl)-6-methyl-1,3-dihydro-2H-benzo[d]imidazol-2-one] gave a concentration for half-maximal inhibition (IC50) of 0.638 µM. Compared with the last molecule, the IC50 is about 12-fold lower.

The molecule `CCCN1CCC(n2c(=O)[nH]c3cc(-c4cc(C)c5ncnn5c4)c(C)cc32)CC1` [Example 7, 6-methyl-5-(8-methyl-[1,2,4]triazolo[1,5-a]pyridin-6-yl)-1-(1-propylpiperidin-4-yl)-1,3-dihydro-2H-benzo[d]imidazol-2-one] displayed a half-inhibitory concentration (IC50) of 1.33 µM. As to `Cc1cc2c(cc1-c1cc(C)c3ncnn3c1)[nH]c(=O)n2C1CCN(C)CC1` [Example 3, 6-methyl-5-(8-methyl-[1,2,4]triazolo[1,5-a]pyridin-6-yl)-1-(1-methylpiperidin-4-yl)-1,3-dihydro-2H-benzo[d]imidazol-2-one], the IC50 amounted to 4.64 µM. `COc1cc(-c2cc3[nH]c(=O)n(C4CCN(C)CC4)c3cc2C(C)C)cn2ncnc12` [Example 154, 6-isopropyl-5-(8-methoxy-[1,2,4]triazolo[1,5-a]pyridin-6-yl)-1-(1-methylpiperidin-4-yl)-1,3-dihydro-2H-benzo[d]imidazol-2-one] showed a half-inhibitory concentration (IC50) of 23.5 µM. Against the preceding molecule, the IC50 is about 5.1-fold higher. `Cc1cc(-c2cc(C)c3ncnn3c2)cc2[nH]c(=O)n(C3CCN(C)CC3)c12` [Example 106, 7-methyl-5-(8-methyl-[1,2,4]triazolo[1,5-a]pyridin-6-yl)-1-(1-methylpiperidin-4-yl)-1,3-dihydro-2H-benzo[d]imidazol-2-one] registered an IC50 of 3.74 µM.

`CCN1CCC[C@@H](n2c(=O)[nH]c3cc(-c4cc(OC)c5ncnn5c4)c(C(C)C)cc32)C1` (single isomer, unassigned) [Example 144] returned an IC50 of 14.1 µM. In the case of `CCc1cc2c(cc1-c1cc(OC)c3ncnn3c1)[nH]c(=O)n2[C@H]1CC[C@@H](NC(C)C)CC1` [Example 167, 6-ethyl-1-((1s,4s)-4-(isopropylamino)cyclohexyl)-5-(8-methoxy-[1,2,4]triazolo[1,5-a]pyridin-6-yl)-1,3-dihydro-2H-benzo[d]imidazol-2-one] it was 16.6 µM. In the case of `CCC(CC)CN1CCC(n2c(=O)[nH]c3cc(-c4cc(OC)c5ncnn5c4)c(C(C)C)cc32)CC1` [Example 165, 1-(1-(2-ethylbutyl)piperidin-4-yl)-6-isopropyl-5-(8-methoxy-[1,2,4]triazolo[1,5-a]pyridin-6-yl)-1,3-dihydro-2H-benzo[d]imidazol-2-one], the IC50 stood at 8.72 µM. In the case of `COc1cc(-c2cc3[nH]c(=O)n([C@H]4CCCN(CC5CC5)C4)c3cc2C(C)C)cn2ncnc12` (single isomer, unassigned) [Example 128] it was above 50 µM; in that of `Cc1cc2c(cc1-c1cc(C)c3ncnn3c1)[nH]c(=O)n2[C@H]1CCCN(C(=O)CN(C)C)C1` [Example 103, (S)-1-(1-(dimethylglycyl)piperidin-3-yl)-6-methyl-5-(8-methyl-[1,2,4]triazolo[1,5-a]pyridin-6-yl)-1,3-dihydro-2H-benzo[d]imidazol-2-one], 4.72 µM. In the case of `CCC(CC)CN1CCC[C@@H](n2c(=O)[nH]c3cc(-c4cn5ncnc5c(C)c4C)c(C(C)C)cc32)C1` [Example 151, (R)-5-(7,8-dimethyl-[1,2,4]triazolo[1,5-a]pyridin-6-yl)-1-(1-(2-ethylbutyl)piperidin-3-yl)-6-isopropyl-1,3-dihydro-2H-benzo[d]imidazol-2-one] it was 17.7 µM; in that of `COc1cc(-c2cc3[nH]c(=O)n([C@@H]4CCCN(CC5CCOCC5)C4)c3cc2C(F)(F)F)cn2ncnc12` [Example 112, (R)-5-(8-methoxy-[1,2,4]triazolo[1,5-a]pyridin-6-yl)-1-(1-((tetrahydro-2H-pyran-4-yl)methyl)piperidin-3-yl)-6-(trifluoromethyl)-1,3-dihydro-2H-benzo[d]imidazol-2-one], 12.7 µM.

The molecule `COc1cc(-c2cc3[nH]c(=O)n([C@H]4CCCN(CCC(C)C)C4)c3cc2C(C)C)cn2ncnc12` [Example 132, (S)-1-(1-isopentylpiperidin-3-yl)-6-isopropyl-5-(8-methoxy-[1,2,4]triazolo[1,5-a]pyridin-6-yl)-1,3-dihydro-2H-benzo[d]imidazol-2-one] came in with an IC50 of 11 µM. The IC50 values of the last two molecules are within 1.5-fold of each other. In the case of `CCN1CCC(n2c(=O)[nH]c3cc(-c4cc(C)c5ncnn5c4)c(C)cc32)CC1` [Example 6, 1-(1-ethylpiperidin-4-yl)-6-methyl-5-(8-methyl-[1,2,4]triazolo[1,5-a]pyridin-6-yl)-1,3-dihydro-2H-benzo[d]imidazol-2-one] it was 0.871 µM. The molecule `COc1cc(-c2cc3[nH]c(=O)n([C@@H]4CCCN(CC5CC5)C4)c3cc2C(C)C)cn2ncnc12` [Example 142, (R)-1-(1-(cyclopropylmethyl)piperidin-3-yl)-6-isopropyl-5-(8-methoxy-[1,2,4]triazolo[1,5-a]pyridin-6-yl)-1,3-dihydro-2H-benzo[d]imidazol-2-one] yielded a half-inhibitory concentration (IC50) of 6.02 µM. Take `COc1cc(-c2cc3[nH]c(=O)n([C@@H]4CCCN(CC(C)(C)C)C4)c3cc2C(F)(F)F)cn2ncnc12` [Example 116, (R)-5-(8-methoxy-[1,2,4]triazolo[1,5-a]pyridin-6-yl)-1-(1-neopentylpiperidin-3-yl)-6-(trifluoromethyl)-1,3-dihydro-2H-benzo[d]imidazol-2-one]: half-maximal inhibition (IC50) was put at 34.2 µM. The molecule `COc1cc(-c2cc3[nH]c(=O)n([C@H]4CCCN(C)C4)c3cc2C(C)C)cn2ncnc12` [Example 119, (S)-6-isopropyl-5-(8-methoxy-[1,2,4]triazolo[1,5-a]pyridin-6-yl)-1-(1-methylpiperidin-3-yl)-1,3-dihydro-2H-benzo[d]imidazol-2-one] came in with an IC50 of 26.3 µM.

These data come from US12187723B2 (BRISTOL-MYERS SQUIBB COMPANY, priority 2019, dated 2025).
